In patent US8105567B2, “Multidentate AZA ligands able to complex metal ions and the use thereof in diagnostics and therapy” (Bracco Imaging SpA, priority 2001, dated 2012):

Legend:
[1] = tested on: PC-3 tumors; assay: Biodistribution and tumor targeting of 177Lu complexes in the human PC-3 nude mouse model; type: in vivo; conditions: 177Lu complex
Protocol: For biodistribution studies, the radiolabeled compounds were prepared as described above except that a 1:1 molar ratio of ligand to Lutetium was used to guarantee complete chelation of all starting ligand. […] The remaining solution was further diluted to the required radioconcentration using Bacteriostatic saline/ASCOR L500® Ascorbic Acid Injection USP mixed in a 9 to 1 [v/v]) ratio.
10-50 μCi of the HPLC purified compounds were administered to each mouse by i.v. tail vein injection, n=4 per group. At 1 h, 1 and 7 days post injection, the mice were terminated and the organs and tissues were harvested. Radioactivity was assayed in a gamma counter. The data was expressed as percentage of the total administered radioactivity (% ID) for the urine combined with the bladder, as well as for the blood pool; and percentage of the total administered radioactivity per gram (% ID/g) for all the other tested organs

[2] = Potentiometric measurements: protonation constants of the ligand; type: physicochemical; conditions: 0.1 mol dm^−3 NMe4NO3, 298.1 K
Protocol: (§1) All the pH metric measurements (pH=−log [H^+]) were carried out in degassed 0.1 mol dm^−3 NMe4NO3 solutions, at 298.1 K, by using a Metrohm 670 Titroprocessor equipped with a Metrohm 6.0203.100 combined pH electrode. Prior to each potentiometric titration, the combined Metrohm electrode was calibrated as a hydrogen concentration probe by titrating known amounts of HCl with CO2-free NMe4OH solutions and determining the equivalent point by the Gran's method which allows to determine the standard potential E^o, and the ionic product of water. In the complexation experiments the metal ion concentration was about 80% of the ligand concentration. At least three measurements (about 100 data points each one) were performed for each system in the pH range 2.5-10.5 and the relevant e.m.f. data were treated by means of the computer programs […] and […] which furnished the protonation and the complexation constants.

[3] = reference complex with two water molecules in the inner sphere; cited from earlier work
[4] = Affinity for lactate ions (titration of 1 mM Gd(III) complex, ternary complex formation); type: physicochemical; conditions: for KA (association constant) with lactate ions: titration with lactate ions
Protocol: (§2) A test, to further evaluate the lack of formation of ternary complexes was performed. As a non-limiting example, we measured the affinity of the compound of example 1 for lactate and phosphate ions. The determination was performed directly by adding increasing amounts of each anion to a 1 mM solution of the Gd(III) complex.
Conversely analogous titrations of Gd-DO3A and Gd-DO3MA (both endowed with q=2) with lactate ions yielded KA values of 150 M^−1 and 110 M^−1, respectively.

[5] = Affinity for phosphate ions (titration of 1 mM Gd(III) complex, ternary complex formation); type: physicochemical; conditions: increasing amounts of anion added to 1 mM complex, FIG. 4
Protocol: as §2

[6] = Relaxivity of the Gd(III) complex; type: physicochemical; conditions: 25° C., pH 7 and 20 MHz
Protocol: The relaxivity determined at 25° C., pH 7 and 20 MHz for said complex is 7.1 mM^−1 s^−1.

[7] = Relaxivity as a function of the pH; type: physicochemical; conditions: FIG. 3
Text: The relaxivity of this complex was further tested as a function of the pH.

[8] = NMRD profile fitting (molecular reorientational time); type: physicochemical; conditions: calculated from fitting of the NMRD profile
[9] = Exchange time (tM) by transverse water 17O NMR relaxation time at variable temperature; type: physicochemical; conditions: 298 K
Text: The exchange time (tM) value of the Gd(III) complex of the example 1 has been assessed by measuring the transverse water ^17O NMR relaxation time at variable temperature according to the procedure described by Aime et al., in the above cited literature.
Obtained value turned out to be 90 ns at 298 K. Albeit the optimal value (about 30 ns) has not been attained, this exchange rate can be considered quite fast, especially if compared with that of (Gd-DO3A), the Gd(III) complex of reference, with two water molecules in the inner sphere, whose tM value is 160 ns.

[10] = Potentiometric measurements: Gd complexation constant; type: physicochemical
Protocol: as §1

With `CC1(N(CC(=O)O)CC(=O)O)CN(CC(=O)O)[C@@H]2CCCC[C@H]2N(CC(=O)O)C1` [Compound 94] the “clearance of Lu-177 from the body (in words)” value ([1]; PC-3 nude mouse) was “rapidly cleared from the body with little residual localization in any organs or tissue”, the “Blood 1 h % ID” value ([1]; i.v., 1 h post injection, blood) was 0.39 ± 0.29 % ID and the “Blood 24 h % ID” value ([1]; i.v., 24 h post injection, blood) was 0.01 ± 0.01 % ID. For the same molecule, the “Blood 7 d % ID (*72 h timepoint)” value ([1]; i.v., 72 h timepoint, blood) was 0.00 ± 0.00 % ID.
With `CC1(N(CC(=O)O)CC(=O)O)CN(CC(=O)O)CCN(CC(=O)O)C1` [Example 1, 1,4-Bis(carboxymethyl)-6-[bis(carboxymethyl)amino]-6-methyl-perhydro-1,4-diazepine] the “Log KH” value ([2]; H2L + H = H3L) was 4.09 (3), the “Log KH” value ([2]; H3L + H = H4L) was 2.60 (3) and the “Log KH” value ([2]; H4L + H = H5L) was 1.44 (4). The “Log KH” value ([2]; H + L = HL) was 11.80 (2) and the “Log KH” value ([2]; HL + H = H2L) was 6.55 (2).
For `O=C([O-])CN1CCNCCN(CC(=O)[O-])CCN(CC(=O)[O-])CC1.[Gd+3]` [Gd-DO3A, reference compound], the “tM value (reference complex)” value [3] is given as 160 ns and the “KA (association constant) with lactate ions” value (“KA (association constant)” for short) [4] is given as 150 M⁻¹.
With `CC(C(=O)[O-])N1CCNCCN(C(C)C(=O)[O-])CCN(C(C)C(=O)[O-])CC1.[Gd+3]` (stereo not drawn) [Gd-DO3MA, reference compound] the “KA (association constant)” value [4] was 110 M⁻¹.
For “Gd(III) Complex of 1,4-Bis(carboxymethylmethyl)-6-[bis(hydroxycarbonyl-methyl)amino]-6-methylperhydro-1,4-diazepine [Gd(III) complex of Example 1]”, the “interaction with phosphate ions” value [5] was “complete absence of interaction”, the relaxivity [6] was 7.1 mM⁻¹ s⁻¹ and the “relaxation rate over the investigated pH range” value [7] was “substantially constant”. For the same molecule, the “tR (molecular reorientational time)” value [8] was 80 ps, the “interaction with lactate ions” value ([4]; increasing amounts of anion added to 1 mM complex, FIG. 4) was “complete absence of interaction” and the “KA (association constant)” value [4] was “does not show any measurable association constant”. The “exchange time (tM)” value [9] was 90 ns, the LogKGd ([10]; M + L = ML, 0.1 mol dm^−3 NMe4NO3, 298.1 K) was 21.52 (1) and the “LogKGd (conditional, pH 7.4)” value ([10]; conditional, pH 7.4) was “LogKGd (conditional, pH 7.4) = 17.06”.
